What was measured:
γ-secretase [1] = assay: In vivo brain α-CTF, Aβ40 and Aβ42 levels in mice after compound A; parameters: species or system C57BL6 mice
Protocol: (§1) Mice were treated via gavage once daily for […] with 30 mg/Kg of compound A and then necropsied 0-48 hours after the final dose was administered.
(§2) C57BL6 mice were treated by oral gavage of 30 mg/kg compound A (0.5% methylcellulose carrier) once a day for 4 consecutive days. After the final dose, nine groups of animals (5 animals per group) were sacrificed at different time points ranging from 15 min. post final dose up to 48 hours post final dose (plus an untreated group). Blood was collected and mouse brain samples were minced and homogenized in water using a FastPrep homogenizer (Thermo Scientific). Plasma and brain homogenates were extracted with acetonitrile for measurement of compound A concentrations by LCMS. For biochemical analysis, brains were homogenized (250 mM sucrose, 50 mM Tris, pH 7.5, 1 mM EDTA plus protease inhibitors) and separated into a membrane fraction and soluble fraction by ultracentrifugation at 100,000 g for 1 hr. The membrane fraction was solubilized in RIPA buffer (1% TX100, 0.5% Taurodexoycholate, 0.1% SDS in TBS+PI) and clarified by centrifugation. Total protein was measured by BCA (Pierce) and 30 ug of each sample was separated by SDS/PAGE and analyzed by Western blot. The following antibodies were used: PS1 ( 1/1000 Abcam no. Ab10281); calnexin ( 1/1000 Abcam no. Ab10286) and APP-CTF ( 1/1000 Anaspec 54096). Western blots were developed using an alkaline phosphatase anti-rabbit secondary and an alkaline phosphatase chemiluminescent substrate. Chemiluminescence data was imaged using an Alpha Innotech FluorChem Q imager and band quantification was carried out using densitometry software AlphaViewQ (Alpha Innotech). […] Abeta40 was quantified from diethylamine extracts using BetaMark Abeta40 ELISA kit (Covance); Abeta42 was quantified from diethylamine extracts using the High Sensitivity Abeta42 ELISA kit (Wako).

[2] = Brain concentration of compound A by LCMS; type: in vivo; conditions: C57BL6, mouse, oral, 30 mg/kg, mice, read-out: brain t1/2 (converted)
Protocol: as §2, with “The membrane fraction was solubilized in RIPA buffer (1% TX100, 0.5% Taurodexoycholate, 0.1% SDS in TBS+PI) and clarified by centrifugation.” left out, “The following antibodies were used: PS1 ( 1/1000 Abcam no. Ab10281); calnexin ( 1/1000 Abcam no. Ab10286) and APP-CTF ( 1/1000 Anaspec 54096). Western blots were developed using an alkaline phosphatase anti-rabbit secondary and an alkaline phosphatase chemiluminescent substrate.” left out

γ-secretase [3] = molecular target: γ-secretase (Homo sapiens, UniProt P49768); assay: γ-secretase inhibitory IC50 of compound A; conditions: γ-secretase inhibition, compared with brain levels
presenilin 1 = molecular target: T1, presenilin 1 (Mus musculus, UniProt P49769); assay: In vivo brain PS1 levels in mice after compound A, western blot; parameters: species or system C57BL6 mice; conditions: 30 mg/kg oral once daily 4 days
T1 construct: brain levels of mature PS1 remain elevated for well after compound A and α-CTFs have returned to baseline levels; The mature form of presenlin is a heterodimer consisting of a ˜30 kDa NH2-terminal fragment (NTF) and a ˜20 kDa C-terminal fragment; from tissue; host or cells: brain membrane fraction of C57BL6 mice
Protocol: as §1, §2

half-life [2]: ~3.5 h
IC50 (γ-secretase [3]): ~60 nM
brain presenilin levels above untreated levels (presenilin 1; at 24 hours): 50%
increase of brain presenilin levels (presenilin 1; within 1 hour of washout): 50%
maximum increase of brain presenilin levels (presenilin 1; within 8 hours of washout): 2 fold
SMILES: C[C@H](OC(=O)NCC(F)(F)C(F)(F)F)C(=O)N[C@@H]1C(=O)N(C)c2ccccc2-c2ccccc21 [Compound A, (S)-1-(((S)-5-methyl-6-oxo-6,7-dihydro-5H-dibenzo[b,d]azepin-7-yl)amino)-1-oxopropan-2-yl (2,2,3,3,3-pentafluoropropyl)carbamate]
reduction of brain Aβ42 levels relative to untreated controls (γ-secretase [1]; 30 mg/kg oral once daily 4 days, 48 hrs after the final dose): 40%
Aβ42/Aβ40 ratio in brain (γ-secretase [1]; 30 mg/kg oral once daily 4 days, washout): reduced
time after final dose at which CTF levels begin to drop (γ-secretase [1]; 30 mg/kg oral, brain α-CTFs): 2 h

— patent publication US20130102538A1, “METHOD OF TREATING ALZHEIMER'S DISEASE USING PHARMACOLOGICAL CHAPERONES TO INCREASE PRESENILIN FUNCTION AND GAMMA-SECRETASE ACTIVITY” (AMICUS THERAPEUTICS, INC., priority 2010, published 2013)
